Values after ≈ are worked out from the molar mass of the structure shown.
How the values were obtained:
Type in all cases: cell-based
[1] = tested on: Staphylococcus aureus FDA 209PJc-1; test: Antibacterial activity, agar-dilution MIC, organism No. 1; details: Staphylococcus aureus, FDA209PJC1; Organism No. 1, bouillon-agar; read-out: Minimum Inhibitory Concentration
Source text: (§1) Agar-dilution method was used for determination of the antibacterial activity and antifungal activity while using bouillon-agar culture medium, and the minimum inhibitory concentration of the specimen was expressed by μg/ml of the culture medium.

[2] = tested on: Staphylococcus aureus Terajima; test: Antibacterial activity, agar-dilution MIC, organism No. 2; details: Staphylococcus aureus; Organism No. 2, bouillon-agar; read-out: Minimum Inhibitory Concentration
Source text: as §1

[3] = tested on: Staphylococcus aureus MS 353; test: Antibacterial activity, agar-dilution MIC, organism No. 3; details: Staphylococcus aureus, MS353; Organism No. 3, bouillon-agar; read-out: Minimum Inhibitory Concentration
Source text: as §1

[4] = tested on: Streptococcus pyogenes Cook; test: Antibacterial activity, agar-dilution MIC, organism No. 4; details: Streptococcus pyogenes; Organism No. 4, bouillon-agar; read-out: Minimum Inhibitory Concentration
Source text: as §1

[5] = tested on: Escherichia coli NIHJ-JC-2; test: Antibacterial activity, agar-dilution MIC, organism No. 5; details: Escherichia coli, NIHJJC2; Organism No. 5, bouillon-agar; read-out: Minimum Inhibitory Concentration
Source text: as §1

[6] = tested on: Escherichia coli K12 C600 IAM 1264; test: Antibacterial activity, agar-dilution MIC, organism No. 6; details: Escherichia coli, IAM1264; Organism No. 6, bouillon-agar; read-out: Minimum Inhibitory Concentration
Source text: as §1

[7] = tested on: Klebsiella pneumoniae PCI-602; test: Antibacterial activity, agar-dilution MIC, organism No. 7; details: Klebsiella pneumoniae, PCI602; Organism No. 7, bouillon-agar; read-out: Minimum Inhibitory Concentration
Source text: as §1

[8] = tested on: Salmonella typhimurium IID 971; test: Antibacterial activity, agar-dilution MIC, organism No. 8; details: Salmonella enterica; Organism No. 8, bouillon-agar; read-out: Minimum Inhibitory Concentration
Source text: as §1

[9] = tested on: Salmonella typhi 901; test: Antibacterial activity, agar-dilution MIC, organism No. 9; details: Salmonella enterica, TYPHI, read-out: Minimum Inhibitory Concentration
Source text: as §1

[10] = tested on: Salmonella paratyphi-A 1015; test: Antibacterial activity, agar-dilution MIC, organism No. 10; details: Salmonella enterica, PARATYPHI, read-out: Minimum Inhibitory Concentration
Source text: as §1

[11] = tested on: Salmonella shottmuelleri 8006; test: Antibacterial activity, agar-dilution MIC, organism No. 11; details: Salmonella, 8006; Organism No. 11, bouillon-agar; read-out: Minimum Inhibitory Concentration
Source text: as §1

[12] = tested on: Salmonella enteritidis G 14; test: Antibacterial activity, agar-dilution MIC, organism No. 12; details: Salmonella enterica, ENTERITIDIS; Organism No. 12, bouillon-agar; read-out: Minimum Inhibitory Concentration
Source text: as §1

[13] = tested on: Bacillus subtilis ATCC 6633; test: Antibacterial activity, agar-dilution MIC, organism No. 14; details: Bacillus subtilis, ATCC6633; Organism No. 14, bouillon-agar; read-out: Minimum Inhibitory Concentration
Source text: as §1

[14] = tested on: Pseudomonas aeruginosa IFO 3445; test: Antibacterial activity, agar-dilution MIC, organism No. 15; details: Pseudomonas aeruginosa, IFO3445; Organism No. 15, bouillon-agar; read-out: Minimum Inhibitory Concentration
Source text: as §1

[15] = tested on: Pseudomonas aeruginosa NCTC 10490; test: Antibacterial activity, agar-dilution MIC, organism No. 16; details: Pseudomonas aeruginosa, NCTC10490; Organism No. 16, bouillon-agar; read-out: Minimum Inhibitory Concentration
Source text: as §1

[16] = tested on: Pseudomonas aeruginosa PAO 1; test: Antibacterial activity, agar-dilution MIC, organism No. 17; details: Pseudomonas aeruginosa, PAO1; Organism No. 17, bouillon-agar; read-out: Minimum Inhibitory Concentration
Source text: as §1

[17] = tested on: Proteus morganii IFO 3848; test: Antibacterial activity, agar-dilution MIC, organism No. 18; details: Morganella morganii, IFO3848; Organism No. 18, bouillon-agar; read-out: Minimum Inhibitory Concentration
Source text: as §1

[18] = tested on: Proteus mirabilis IFO 3849; test: Antibacterial activity, agar-dilution MIC, organism No. 19; details: Proteus mirabilis, IFO3849; Organism No. 19, bouillon-agar; read-out: Minimum Inhibitory Concentration
Source text: as §1

[19] = tested on: Proteus vulgaris OX-19; test: Antibacterial activity, agar-dilution MIC, organism No. 20; details: Proteus vulgaris, OX19; Organism No. 20, bouillon-agar; read-out: Minimum Inhibitory Concentration
Source text: as §1

[20] = tested on: Proteus vulgaris HX-19; test: Antibacterial activity, agar-dilution MIC, organism No. 21; details: Proteus vulgaris, HX19; Organism No. 21, bouillon-agar; read-out: Minimum Inhibitory Concentration
Source text: as §1

[21] = tested on: Proteus rettgeri IFO 3850; test: Antibacterial activity, agar-dilution MIC, organism No. 22; details: Providencia rettgeri, IFO3850; Organism No. 22, bouillon-agar; read-out: Minimum Inhibitory Concentration
Source text: as §1

[22] = tested on: Enterobacter aerogenes ATCC 13048; test: Antibacterial activity, agar-dilution MIC, organism No. 23; details: Klebsiella aerogenes, ATCC13048; Organism No. 23, bouillon-agar; read-out: Minimum Inhibitory Concentration
Source text: as §1

[23] = tested on: Enterobacter cloacae 963; test: Antibacterial activity, agar-dilution MIC, organism No. 24; details: Enterobacter cloacae, 963; Organism No. 24, bouillon-agar; read-out: Minimum Inhibitory Concentration
Source text: as §1

[24] = tested on: Micrococcus luteus ATCC 9341; test: Antibacterial activity, agar-dilution MIC, organism No. 25; details: Micrococcus luteus, ATCC9341; Organism No. 25, bouillon-agar; read-out: Minimum Inhibitory Concentration
Source text: as §1

[25] = tested on: Streptococcus pyogenes IFO 3340; test: Antibacterial activity, agar-dilution MIC, organism No. 26; details: Streptococcus pyogenes, IFO3340; Organism No. 26, bouillon-agar; read-out: Minimum Inhibitory Concentration
Source text: as §1

[26] = tested on: Streptococcus faecium IFO 3826; test: Antibacterial activity, agar-dilution MIC, organism No. 27; details: Enterococcus faecium, IFO3826; Organism No. 27, bouillon-agar; read-out: Minimum Inhibitory Concentration
Source text: as §1

[27] = tested on: Mycoplasma pneumoniae IID817; test: Antimycoplasmal activity, MIC by phenol red colour change, organism No. 28; details: Mycoplasma, IID817; Organism No. 28, PPLO broth + 1% glucose, 37° C.; read-out: Minimum Inhibitory Concentration (MIC)
Method: Mycoplasma pneumoniae IID817 was used as the test microorganism in a culture medium prepared by adding 1% of glucose to "PPLO broth (manufactured by Difco Co.) liquid culture medium" at 37° C. with phenol red as an indicator, thereby culturing the test microorganism.

[28] = tested on: Candida albicans IAM 4905; test: Antifungal activity, agar-dilution MIC, organism No. 29; details: Candida albicans, IAM4905; Organism No. 29, bouillon-agar; read-out: Minimum Inhibitory Concentration
Source text: as §1

[29] = tested on: Aspergillus niger IFO 6342; test: Antifungal activity, agar-dilution MIC, organism No. 30; details: Aspergillus niger, IFO6342; Organism No. 30, bouillon-agar; read-out: Minimum Inhibitory Concentration
Source text: as §1

Row | Compound | MIC [1] | MIC [2] | MIC [3] | MIC [4] | MIC [5] | MIC [6] | MIC [7] | MIC [8] | MIC [9] | MIC [10] | MIC [11] | MIC [12] | MIC [13] | MIC [14] | MIC [15] | MIC [16] | MIC [17] | MIC [18] | MIC [19] | MIC [20] | other results
1 | [C-]#[N+]C12CC3(/C=C/C(=O)N[C@@H](CCC(=O)OC)C(=O)OC)OC3C1O2 (stereo partly drawn) [Compound No. 26] | 25 µg/mL (≈ 71.4 µM) | 100 µg/mL (≈ 285 µM) | 25 µg/mL (≈ 71.4 µM) | 50 µg/mL (≈ 143 µM) | 100 µg/mL (≈ 285 µM) | 100 µg/mL (≈ 285 µM) | 50 µg/mL (≈ 143 µM) | 100 µg/mL (≈ 285 µM) | 50 µg/mL (≈ 143 µM) | 50 µg/mL (≈ 143 µM) | 50 µg/mL (≈ 143 µM) | 50 µg/mL (≈ 143 µM) | 100 µg/mL (≈ 285 µM) | > 200 µg/mL | > 200 µg/mL | > 200 µg/mL | 100 µg/mL (≈ 285 µM) | > 200 µg/mL | 25 µg/mL (≈ 71.4 µM) | 12.5 µg/mL (≈ 35.7 µM) | MIC [21]: > 200 µg/mL; MIC [22]: > 200 µg/mL; MIC [23]: > 200 µg/mL; MIC [24]: 12.5 µg/mL (≈ 35.7 µM); MIC [25]: 50 µg/mL (≈ 143 µM); MIC [26]: > 200 µg/mL; MIC [27]: 1.56 µg/mL; MIC [28]: 100 µg/mL (≈ 285 µM); MIC [29]: 100 µg/mL (≈ 285 µM)
2 | [C-]#[N+]C12CC3(/C=C/C(=O)N[C@@H](CCC(=O)OCc4ccccc4)C(=O)OCc4ccccc4)OC3C1O2 (stereo partly drawn) [Compound No. 28] | 12.5 µg/mL (≈ 24.9 µM) | 12.5 µg/mL (≈ 24.9 µM) | 12.5 µg/mL (≈ 24.9 µM) | > 200 µg/mL | > 200 µg/mL | > 200 µg/mL | > 200 µg/mL | > 200 µg/mL | > 200 µg/mL | > 200 µg/mL | > 200 µg/mL | > 200 µg/mL | < 1.56 µg/mL | > 200 µg/mL | > 200 µg/mL | > 200 µg/mL | > 200 µg/mL | > 200 µg/mL | > 200 µg/mL | 25 µg/mL (≈ 49.7 µM) | MIC [21]: > 200 µg/mL; MIC [22]: > 200 µg/mL; MIC [23]: > 200 µg/mL; MIC [24]: < 1.56 µg/mL; MIC [25]: > 200 µg/mL; MIC [26]: 0.5 µg/mL (≈ 0.995 µM); MIC [27]: > 100 µg/mL; MIC [28]: > 100 µg/mL; MIC [29]: > 100 µg/mL
3 | [C-]#[N+]C12CC3(/C=C/C(=O)N[C@@H](C(=O)OCc4ccccc4)C(C)C)OC3C1O2 (stereo partly drawn) [compound 30] | > 200 µg/mL | > 200 µg/mL | > 200 µg/mL | > 200 µg/mL | > 200 µg/mL | > 200 µg/mL | > 200 µg/mL | > 200 µg/mL | > 200 µg/mL | > 200 µg/mL | > 200 µg/mL | > 200 µg/mL | > 200 µg/mL | > 200 µg/mL | > 200 µg/mL | > 200 µg/mL | > 200 µg/mL | > 200 µg/mL | > 200 µg/mL | > 200 µg/mL | MIC [21]: > 200 µg/mL; MIC [22]: > 200 µg/mL; MIC [23]: > 200 µg/mL; MIC [24]: 1.56 µg/mL (≈ 4.08 µM); MIC [25]: > 200 µg/mL; MIC [26]: > 200 µg/mL; MIC [27]: > 100 µg/mL; MIC [28]: > 100 µg/mL; MIC [29]: > 100 µg/mL
